Activity calls are given as the source filed them. The rule behind the calls is not given here.
Legend:
Assay in all cases: kinase panel binding selectivity, selectivity assay, biochemical, KINOMEscan (AID 1982)
TEC = details: KINOMEscan 353-kinase binding panel, qPCR, at 10 µM, stronger effect = lower value
[1] = target: Mitogen-activated protein kinase 12 (Homo sapiens) (UniProt P53778); details: KINOMEscan 353-kinase binding panel, qPCR; p38-gamma; at 10 µM; stronger effect = lower value
[2] = target: Serine/threonine-protein kinase PLK4 (Homo sapiens) (UniProt O00444); details: KINOMEscan 353-kinase binding panel, qPCR, at 10 µM, stronger effect = lower value
Serine/threonine-protein kinase PLK4 (Homo sapiens), sequence (O00444 whole entry, looked up): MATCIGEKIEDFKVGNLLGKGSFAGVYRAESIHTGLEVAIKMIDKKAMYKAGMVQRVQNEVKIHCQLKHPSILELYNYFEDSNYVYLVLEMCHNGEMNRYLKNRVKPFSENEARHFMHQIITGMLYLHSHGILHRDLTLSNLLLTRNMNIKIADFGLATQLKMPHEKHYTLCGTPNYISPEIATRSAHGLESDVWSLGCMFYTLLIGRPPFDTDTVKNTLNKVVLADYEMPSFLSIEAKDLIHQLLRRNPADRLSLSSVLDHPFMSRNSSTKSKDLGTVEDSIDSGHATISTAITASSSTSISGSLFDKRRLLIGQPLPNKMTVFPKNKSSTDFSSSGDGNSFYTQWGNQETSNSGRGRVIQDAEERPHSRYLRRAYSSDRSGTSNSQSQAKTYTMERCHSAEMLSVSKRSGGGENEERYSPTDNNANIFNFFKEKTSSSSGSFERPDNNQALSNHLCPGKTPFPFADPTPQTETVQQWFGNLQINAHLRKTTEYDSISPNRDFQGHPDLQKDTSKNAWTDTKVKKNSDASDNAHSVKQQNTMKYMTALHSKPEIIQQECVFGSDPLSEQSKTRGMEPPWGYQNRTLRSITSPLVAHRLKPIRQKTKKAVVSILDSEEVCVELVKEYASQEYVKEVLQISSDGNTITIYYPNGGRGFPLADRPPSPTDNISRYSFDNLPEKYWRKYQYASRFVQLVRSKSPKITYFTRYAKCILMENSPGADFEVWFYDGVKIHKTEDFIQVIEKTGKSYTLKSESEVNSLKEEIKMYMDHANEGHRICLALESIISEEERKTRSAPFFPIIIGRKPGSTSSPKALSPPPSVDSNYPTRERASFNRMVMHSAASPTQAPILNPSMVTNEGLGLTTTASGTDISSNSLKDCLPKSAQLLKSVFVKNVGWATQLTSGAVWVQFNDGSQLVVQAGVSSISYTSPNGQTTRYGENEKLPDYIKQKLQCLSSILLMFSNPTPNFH

MYLK2 = details: KINOMEscan 353-kinase binding panel, qPCR, at 10 µM, stronger effect = lower value
[3] = target: Wee1-like protein kinase 2 (Homo sapiens) (UniProt P0C1S8); details: KINOMEscan 353-kinase binding panel, qPCR; WEE2; at 10 µM; stronger effect = lower value
FGR = details: KINOMEscan 353-kinase binding panel, qPCR, at 10 µM, stronger effect = lower value
[4] = target: Glycogen synthase kinase-3 beta (Homo sapiens) (UniProt P49841); details: KINOMEscan 353-kinase binding panel, qPCR; GSK3B; at 10 µM; stronger effect = lower value
FGFR4 = details: KINOMEscan 353-kinase binding panel, qPCR, at 10 µM, stronger effect = lower value
DRAK2 = details: KINOMEscan 353-kinase binding panel, qPCR, at 10 µM, stronger effect = lower value
ARK5 = details: KINOMEscan 353-kinase binding panel, qPCR, at 10 µM, stronger effect = lower value
IRAK3 = details: KINOMEscan 353-kinase binding panel, qPCR, at 10 µM, stronger effect = lower value
[5] = target: Glycogen synthase kinase-3 alpha (Homo sapiens) (UniProt P49840); details: KINOMEscan 353-kinase binding panel, qPCR; GSK3A; at 10 µM; stronger effect = lower value
STK35 = details: KINOMEscan 353-kinase binding panel, qPCR, at 10 µM, stronger effect = lower value
[6] = target: Serine/threonine-protein kinase D3 (Homo sapiens) (UniProt O94806); details: KINOMEscan 353-kinase binding panel, qPCR; PRKD3; at 10 µM; stronger effect = lower value
Serine/threonine-protein kinase D3 (Homo sapiens), sequence (O94806 whole entry, looked up): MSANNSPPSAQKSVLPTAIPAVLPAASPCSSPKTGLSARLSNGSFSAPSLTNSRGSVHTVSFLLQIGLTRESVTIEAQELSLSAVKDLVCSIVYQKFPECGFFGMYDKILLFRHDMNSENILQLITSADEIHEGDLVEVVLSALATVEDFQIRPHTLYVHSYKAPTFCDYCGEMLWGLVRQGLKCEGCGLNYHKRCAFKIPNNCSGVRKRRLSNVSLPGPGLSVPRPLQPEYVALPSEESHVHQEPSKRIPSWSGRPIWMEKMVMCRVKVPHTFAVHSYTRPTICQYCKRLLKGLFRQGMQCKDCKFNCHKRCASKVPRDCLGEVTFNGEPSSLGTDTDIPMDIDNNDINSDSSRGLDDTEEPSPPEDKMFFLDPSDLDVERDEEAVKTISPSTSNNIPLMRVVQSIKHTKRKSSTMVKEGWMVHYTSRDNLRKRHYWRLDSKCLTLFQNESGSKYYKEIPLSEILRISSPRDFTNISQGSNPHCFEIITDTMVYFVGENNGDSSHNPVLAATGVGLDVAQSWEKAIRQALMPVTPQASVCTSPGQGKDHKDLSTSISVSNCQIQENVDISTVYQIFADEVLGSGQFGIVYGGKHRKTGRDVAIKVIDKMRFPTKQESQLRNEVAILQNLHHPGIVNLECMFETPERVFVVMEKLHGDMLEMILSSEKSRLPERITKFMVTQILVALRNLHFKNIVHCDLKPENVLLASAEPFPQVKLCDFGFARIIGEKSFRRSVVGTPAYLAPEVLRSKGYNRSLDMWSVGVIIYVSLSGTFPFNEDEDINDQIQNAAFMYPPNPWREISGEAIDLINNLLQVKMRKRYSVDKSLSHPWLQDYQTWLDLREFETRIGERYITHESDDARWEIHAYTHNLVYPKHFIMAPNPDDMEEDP

[7] = target: MAP/microtubule affinity-regulating kinase 4 (Homo sapiens) (UniProt Q96L34); details: KINOMEscan 353-kinase binding panel, qPCR; MARK4; at 10 µM; stronger effect = lower value
MAP/microtubule affinity-regulating kinase 4 (Homo sapiens), sequence (Q96L34 whole entry, looked up, canonical isoform): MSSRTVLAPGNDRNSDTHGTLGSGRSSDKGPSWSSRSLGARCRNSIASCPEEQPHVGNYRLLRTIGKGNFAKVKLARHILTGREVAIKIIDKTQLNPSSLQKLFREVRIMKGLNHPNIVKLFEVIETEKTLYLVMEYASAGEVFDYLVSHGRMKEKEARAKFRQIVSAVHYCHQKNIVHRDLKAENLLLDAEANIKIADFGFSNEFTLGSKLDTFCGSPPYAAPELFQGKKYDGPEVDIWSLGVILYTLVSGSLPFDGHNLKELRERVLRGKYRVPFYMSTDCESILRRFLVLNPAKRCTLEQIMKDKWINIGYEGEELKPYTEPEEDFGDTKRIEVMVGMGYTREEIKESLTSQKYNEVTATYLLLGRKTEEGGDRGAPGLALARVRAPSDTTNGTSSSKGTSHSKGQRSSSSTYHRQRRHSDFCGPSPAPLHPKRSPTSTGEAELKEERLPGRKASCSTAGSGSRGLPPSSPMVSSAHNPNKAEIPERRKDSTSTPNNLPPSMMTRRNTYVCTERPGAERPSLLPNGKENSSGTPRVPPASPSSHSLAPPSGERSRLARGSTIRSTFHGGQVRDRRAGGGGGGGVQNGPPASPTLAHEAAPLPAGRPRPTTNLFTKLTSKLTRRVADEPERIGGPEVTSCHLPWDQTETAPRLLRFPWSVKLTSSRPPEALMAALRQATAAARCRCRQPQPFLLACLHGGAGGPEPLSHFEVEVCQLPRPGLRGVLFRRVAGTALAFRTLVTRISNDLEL

[8] = target: Phosphorylase b kinase gamma catalytic chain, liver/testis isoform (Homo sapiens) (UniProt P15735); details: KINOMEscan 353-kinase binding panel, qPCR; PHKG2; at 10 µM; stronger effect = lower value
PRKR = details: KINOMEscan 353-kinase binding panel, qPCR, at 10 µM, stronger effect = lower value
TAOK3 = details: KINOMEscan 353-kinase binding panel, qPCR, at 10 µM, stronger effect = lower value
TNK1 = details: KINOMEscan 353-kinase binding panel, qPCR, at 10 µM, stronger effect = lower value
YSK1 = details: KINOMEscan 353-kinase binding panel, qPCR, at 10 µM, stronger effect = lower value
[9] = target: Phosphatidylinositol 5-phosphate 4-kinase type-2 beta (Homo sapiens) (UniProt P78356); details: KINOMEscan 353-kinase binding panel, qPCR; PIP5K2B; at 10 µM; stronger effect = lower value
TLK1 = details: KINOMEscan 353-kinase binding panel, qPCR, at 10 µM, stronger effect = lower value
BRSK2 = details: KINOMEscan 353-kinase binding panel, qPCR, at 10 µM, stronger effect = lower value
EPHB1 = details: KINOMEscan 353-kinase binding panel, qPCR, at 10 µM, stronger effect = lower value
PAK4 = details: KINOMEscan 353-kinase binding panel, qPCR, at 10 µM, stronger effect = lower value
[10] = target: Mitogen-activated protein kinase kinase kinase kinase 5 (Homo sapiens) (UniProt Q9Y4K4); details: KINOMEscan 353-kinase binding panel, qPCR; MAP4K5; at 10 µM; stronger effect = lower value
Mitogen-activated protein kinase kinase kinase kinase 5 (Homo sapiens), sequence (Q9Y4K4 whole entry, looked up): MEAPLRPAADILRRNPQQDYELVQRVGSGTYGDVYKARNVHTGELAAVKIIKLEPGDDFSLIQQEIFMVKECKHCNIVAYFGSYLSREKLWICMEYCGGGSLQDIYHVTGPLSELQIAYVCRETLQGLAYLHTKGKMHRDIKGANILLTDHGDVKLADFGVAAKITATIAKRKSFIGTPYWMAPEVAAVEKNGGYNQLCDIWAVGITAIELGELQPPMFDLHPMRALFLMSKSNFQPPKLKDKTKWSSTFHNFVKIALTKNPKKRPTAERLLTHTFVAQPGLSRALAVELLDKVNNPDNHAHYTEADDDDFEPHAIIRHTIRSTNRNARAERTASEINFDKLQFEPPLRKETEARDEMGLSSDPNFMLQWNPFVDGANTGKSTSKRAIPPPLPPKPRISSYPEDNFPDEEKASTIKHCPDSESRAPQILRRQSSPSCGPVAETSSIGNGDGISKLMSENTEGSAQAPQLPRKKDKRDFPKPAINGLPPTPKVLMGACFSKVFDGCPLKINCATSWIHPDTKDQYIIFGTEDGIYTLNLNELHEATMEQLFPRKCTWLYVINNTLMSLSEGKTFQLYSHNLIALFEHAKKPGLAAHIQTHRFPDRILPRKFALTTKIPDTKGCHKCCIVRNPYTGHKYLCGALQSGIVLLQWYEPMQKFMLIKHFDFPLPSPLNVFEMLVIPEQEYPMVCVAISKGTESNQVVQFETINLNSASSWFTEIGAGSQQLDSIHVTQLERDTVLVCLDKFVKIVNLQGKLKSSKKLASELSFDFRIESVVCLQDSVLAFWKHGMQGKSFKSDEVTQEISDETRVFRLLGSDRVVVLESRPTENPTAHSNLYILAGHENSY

[11] = target: Serine/threonine-protein kinase 3 (Homo sapiens) (UniProt Q13188); details: KINOMEscan 353-kinase binding panel, qPCR; MST2; at 10 µM; stronger effect = lower value
[12] = target: RAC-beta serine/threonine-protein kinase (Homo sapiens) (UniProt P31751); details: KINOMEscan 353-kinase binding panel, qPCR; AKT2; at 10 µM; stronger effect = lower value
RAC-beta serine/threonine-protein kinase (Homo sapiens), sequence (P31751 whole entry, looked up): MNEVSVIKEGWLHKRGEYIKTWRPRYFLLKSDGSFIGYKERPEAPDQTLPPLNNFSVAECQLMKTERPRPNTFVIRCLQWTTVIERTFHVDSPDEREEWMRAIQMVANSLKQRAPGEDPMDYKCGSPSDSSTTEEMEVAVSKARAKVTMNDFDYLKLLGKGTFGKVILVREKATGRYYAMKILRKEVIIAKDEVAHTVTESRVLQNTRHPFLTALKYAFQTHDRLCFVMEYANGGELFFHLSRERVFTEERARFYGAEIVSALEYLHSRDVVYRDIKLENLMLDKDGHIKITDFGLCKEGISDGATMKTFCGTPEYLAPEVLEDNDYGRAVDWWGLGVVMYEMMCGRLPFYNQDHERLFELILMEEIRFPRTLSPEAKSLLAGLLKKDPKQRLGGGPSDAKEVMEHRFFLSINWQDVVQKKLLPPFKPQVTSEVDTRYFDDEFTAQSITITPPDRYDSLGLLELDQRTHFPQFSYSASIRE

[13] = target: Dual specificity protein kinase CLK1 (Homo sapiens) (UniProt P49759); details: KINOMEscan 353-kinase binding panel, qPCR, at 10 µM, stronger effect = lower value
[14] = target: Serine/threonine-protein kinase PLK3 (Homo sapiens) (UniProt Q9H4B4); details: KINOMEscan 353-kinase binding panel, qPCR, at 10 µM, stronger effect = lower value
Serine/threonine-protein kinase PLK3 (Homo sapiens), sequence (Q9H4B4 whole entry, looked up): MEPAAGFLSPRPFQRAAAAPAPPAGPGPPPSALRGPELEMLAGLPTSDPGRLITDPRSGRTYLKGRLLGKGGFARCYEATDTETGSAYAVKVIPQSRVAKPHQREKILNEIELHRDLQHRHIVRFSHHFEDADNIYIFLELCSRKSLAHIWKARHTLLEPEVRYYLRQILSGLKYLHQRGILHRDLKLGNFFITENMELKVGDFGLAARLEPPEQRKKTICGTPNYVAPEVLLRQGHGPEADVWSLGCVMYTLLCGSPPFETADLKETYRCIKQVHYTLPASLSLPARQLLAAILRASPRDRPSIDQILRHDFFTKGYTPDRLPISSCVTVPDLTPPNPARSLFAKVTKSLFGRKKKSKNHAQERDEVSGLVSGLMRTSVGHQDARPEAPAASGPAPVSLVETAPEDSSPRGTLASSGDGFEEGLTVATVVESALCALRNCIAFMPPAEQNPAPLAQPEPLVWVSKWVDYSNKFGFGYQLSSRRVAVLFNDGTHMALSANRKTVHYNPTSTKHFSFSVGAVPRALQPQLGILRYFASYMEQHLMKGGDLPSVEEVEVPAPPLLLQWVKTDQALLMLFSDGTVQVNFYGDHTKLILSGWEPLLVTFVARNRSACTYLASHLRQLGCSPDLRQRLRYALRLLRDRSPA

[15] = target: Serine/threonine-protein kinase MARK2 (Homo sapiens) (UniProt Q7KZI7); details: KINOMEscan 353-kinase binding panel, qPCR, at 10 µM, stronger effect = lower value
ABL2 = details: KINOMEscan 353-kinase binding panel, qPCR, at 10 µM, stronger effect = lower value
RPS6KA2(Kin.Dom.2) = details: KINOMEscan 353-kinase binding panel, qPCR, at 10 µM, stronger effect = lower value
EPHA3 = details: KINOMEscan 353-kinase binding panel, qPCR, at 10 µM, stronger effect = lower value
CDK3 = details: KINOMEscan 353-kinase binding panel, qPCR, at 10 µM, stronger effect = lower value
JNK1 = details: KINOMEscan 353-kinase binding panel, qPCR, at 10 µM, stronger effect = lower value

Mitogen-activated protein kinase 12 (Homo sapiens), sequence (P53778 whole entry, looked up): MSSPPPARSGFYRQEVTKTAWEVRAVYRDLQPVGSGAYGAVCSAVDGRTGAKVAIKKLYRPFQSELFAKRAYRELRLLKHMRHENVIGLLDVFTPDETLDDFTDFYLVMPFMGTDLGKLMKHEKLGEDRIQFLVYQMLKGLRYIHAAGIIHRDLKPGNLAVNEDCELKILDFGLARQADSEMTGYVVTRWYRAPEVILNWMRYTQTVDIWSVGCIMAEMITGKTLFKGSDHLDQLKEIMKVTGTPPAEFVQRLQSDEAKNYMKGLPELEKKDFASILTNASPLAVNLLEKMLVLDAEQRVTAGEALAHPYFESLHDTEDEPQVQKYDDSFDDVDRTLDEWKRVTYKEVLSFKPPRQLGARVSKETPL

percent of control binding (TEC): 98% (inactive)
percent of control binding [1]: 95% (inactive)
percent of control binding [2]: 91% (inactive)
percent of control binding (MYLK2): 97% (inactive)
percent of control binding [3]: 100% (inactive)
percent of control binding (FGR): 100% (inactive)
percent of control binding [4]: 100% (inactive)
percent of control binding (FGFR4): 81% (inactive)
percent of control binding (DRAK2): 100% (inactive)
percent of control binding (ARK5): 100% (inactive)
percent of control binding (IRAK3): 100% (inactive)
percent of control binding [5]: 99% (inactive)
percent of control binding (STK35): 100% (inactive)
percent of control binding [6]: 100% (inactive)
percent of control binding [7]: 98% (inactive)
percent of control binding [8]: 100% (inactive)
percent of control binding (PRKR): 98% (inactive)
percent of control binding (TAOK3): 99% (inactive)
percent of control binding (TNK1): 80% (inactive)
percent of control binding (YSK1): 84% (inactive)
percent of control binding [9]: 99% (inactive)
percent of control binding (TLK1): 30%
percent of control binding (BRSK2): 100% (inactive)
percent of control binding (EPHB1): 95% (inactive)
percent of control binding (PAK4): 92% (inactive)
percent of control binding [10]: 83% (inactive)
percent of control binding [11]: 100% (inactive)
percent of control binding [12]: 85% (inactive)
percent of control binding [13]: 98% (inactive)
percent of control binding [14]: 100% (inactive)
percent of control binding [15]: 100% (inactive)
percent of control binding (ABL2): 85% (inactive)
percent of control binding (RPS6KA2(Kin.Dom.2)): 100% (inactive)
percent of control binding (EPHA3): 84% (inactive)
percent of control binding (CDK3): 82% (inactive)
percent of control binding (JNK1): 100% (inactive)
SMILES: Cc1cc2nc(NCCCO)n(CC(=O)c3cc(C(C)(C)C)c(O)c(C(C)(C)C)c3)c2cc1C

Source: PubChem BioAssay AID1982 (Sanford-Burnham Center for Chemical Genomics, 2009)
